Source: patent US9427415B2, “Methods and compositions for modifying sensorial perception” (The Procter & Gamble Company, priority 2014, dated 2016)
Where two headings read alike, the source gives them in different places.

Key:
human TRPV1 = molecular target: T1, human TRPV1 (Homo sapiens, UniProt Q8NER1, M315I/T336M); assay: Intracellular calcium (Fluo-4, FLIPR) activation of TRPV1 cells by GRAS compounds; format: cell-based; conditions: for activation at 1000 µM / activation at 100 µM / V1 activation, % of agonist value: relative to capsaicin 350 nM; for activation at 1000 µM / activation at 100 µM: read-out: V1 activation, % of agonist value; for TRPV1 activation selectivity, in words: statement in description, see Table 1(i);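 for all read-outs here: TRPV1-expressing cells, FLIPR fluorescence at 488/514 nm with baseline subtracted, sampled every 2 s for 10 min after adding compound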
T1 construct: expressed in transfected cells; pcDNA3 control cells
T1 sequence (Q8NER1 whole entry M315I/T336M): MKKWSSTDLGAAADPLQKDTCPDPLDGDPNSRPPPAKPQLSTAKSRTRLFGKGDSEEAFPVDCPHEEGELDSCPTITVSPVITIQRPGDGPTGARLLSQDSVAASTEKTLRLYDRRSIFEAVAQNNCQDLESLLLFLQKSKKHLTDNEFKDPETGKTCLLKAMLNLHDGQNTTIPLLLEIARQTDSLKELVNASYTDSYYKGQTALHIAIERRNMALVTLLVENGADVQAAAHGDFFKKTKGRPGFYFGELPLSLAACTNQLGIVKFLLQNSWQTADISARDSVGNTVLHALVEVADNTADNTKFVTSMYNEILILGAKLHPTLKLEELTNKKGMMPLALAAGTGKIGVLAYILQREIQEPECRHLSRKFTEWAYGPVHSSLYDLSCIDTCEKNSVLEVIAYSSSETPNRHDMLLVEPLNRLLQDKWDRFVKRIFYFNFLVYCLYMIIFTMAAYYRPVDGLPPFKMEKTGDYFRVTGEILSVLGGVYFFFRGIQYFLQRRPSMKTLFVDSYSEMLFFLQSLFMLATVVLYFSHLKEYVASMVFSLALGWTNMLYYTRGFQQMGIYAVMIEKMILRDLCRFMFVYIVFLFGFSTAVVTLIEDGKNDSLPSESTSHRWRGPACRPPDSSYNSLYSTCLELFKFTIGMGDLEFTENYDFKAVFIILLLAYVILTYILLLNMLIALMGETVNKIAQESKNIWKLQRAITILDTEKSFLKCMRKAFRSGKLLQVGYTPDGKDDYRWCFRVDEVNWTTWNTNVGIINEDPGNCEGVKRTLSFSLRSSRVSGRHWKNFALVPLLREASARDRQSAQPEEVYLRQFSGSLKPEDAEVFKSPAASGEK

TRPA1V1 = assay: Intracellular calcium (Fluo-4, FLIPR) activation of TRPA1V1 cells (co-expressing TRPA1 and TRPV1) by GRAS compounds; format: cell-based, human;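 note: HEK293 cells co-expressing TRPA1 and TRPV1, fluorescence read at 488/514 nm after baseline subtraction, recorded every 2 s over 10 min, ionomycin 10 µM and buffer as controls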
human TRPA1 = molecular target: T2, human TRPA1 (Homo sapiens, UniProt O75762, K186N/R3C/R58T); assay: Intracellular calcium (Fluo-4, FLIPR) activation of TRPA1 cells by GRAS compounds; format: cell-based; conditions: relative to AITC 30 μM; for activation at 1000 µM / activation at 100 µM: read-out: A1 activation, % of agonist value;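 for all read-outs here: TRPA1-expressing cells, fluorescence read on a FLIPR Tetra (ex 488 nm, em 514 nm) every 2 s for 10 min after compound addition, baseline subtracted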
T2 construct: expressed in transfected cells; pcDNA3 control cells
T2 sequence (O75762 whole entry R3C/R58T/K186N): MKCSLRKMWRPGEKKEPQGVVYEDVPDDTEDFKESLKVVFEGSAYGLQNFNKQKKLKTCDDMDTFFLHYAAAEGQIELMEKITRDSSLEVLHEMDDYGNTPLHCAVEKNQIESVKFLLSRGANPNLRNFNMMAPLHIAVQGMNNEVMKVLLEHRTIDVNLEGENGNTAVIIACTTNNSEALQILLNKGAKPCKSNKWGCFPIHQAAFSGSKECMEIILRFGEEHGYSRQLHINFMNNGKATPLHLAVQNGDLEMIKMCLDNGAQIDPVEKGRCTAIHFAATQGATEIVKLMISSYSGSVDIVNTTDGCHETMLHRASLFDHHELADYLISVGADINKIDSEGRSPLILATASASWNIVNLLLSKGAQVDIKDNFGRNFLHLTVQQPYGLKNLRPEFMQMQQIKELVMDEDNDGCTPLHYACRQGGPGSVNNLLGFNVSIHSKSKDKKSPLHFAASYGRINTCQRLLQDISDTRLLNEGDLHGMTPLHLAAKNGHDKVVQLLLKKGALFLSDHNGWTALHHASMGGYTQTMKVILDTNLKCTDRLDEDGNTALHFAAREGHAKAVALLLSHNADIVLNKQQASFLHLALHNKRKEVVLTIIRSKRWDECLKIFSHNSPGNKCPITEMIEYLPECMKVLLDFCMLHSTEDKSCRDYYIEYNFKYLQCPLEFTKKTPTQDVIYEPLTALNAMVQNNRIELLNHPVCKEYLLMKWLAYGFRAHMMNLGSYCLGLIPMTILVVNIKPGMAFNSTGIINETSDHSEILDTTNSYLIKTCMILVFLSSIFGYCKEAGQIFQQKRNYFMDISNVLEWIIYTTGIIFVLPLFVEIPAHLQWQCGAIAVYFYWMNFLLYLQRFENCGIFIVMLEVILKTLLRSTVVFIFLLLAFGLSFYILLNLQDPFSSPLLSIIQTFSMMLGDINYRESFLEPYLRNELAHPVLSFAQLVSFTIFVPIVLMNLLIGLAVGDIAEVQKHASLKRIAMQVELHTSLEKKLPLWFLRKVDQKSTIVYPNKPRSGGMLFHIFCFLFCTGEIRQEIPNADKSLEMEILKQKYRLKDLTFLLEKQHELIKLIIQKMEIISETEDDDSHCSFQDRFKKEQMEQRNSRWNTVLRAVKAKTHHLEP

[1] = Table 1(b), 1 mM, relative to AITC 30 μM
[2] = Table 1(a), 100 μM (*), relative to AITC 30 μM
[3] = Table 1(a), 1 mM, average of three plates
[4] = Table 1(a), 1 mM, relative to AITC 30 μM, average of three plates
[5] = Table 1(d), 100 μM (*), relative to AITC 30 μM

Q: With `O=C1CCCC1C1CCCC1` (stereo not drawn) [2-Cyclopentylcyclopentanone] as the compound, how does the activation at 1000 µM (human TRPV1; Table 1(b), 1 mM) read?
A: 24%

Q: And the “A1V1 activation, % of agonist value” (TRPA1V1; [1])?
A: 90.8%

Q: What about the activation at 1000 µM (human TRPA1; Table 1(b), 1 mM) of the same compound?
A: 25%

Q: How did the activation at 100 µM (human TRPV1; Table 1(i), 100 μM (*), […]) turn out when `CCc1ccco1` [2-Ethylfuran] was run?
A: 58.7%

Q: What about the “TRPV1 activation selectivity, in words” value (human TRPV1) of the same compound?
A: TRPV1 activators which do not modulate TRPA1 or TRPA1V1

Q: And the “A1V1 activation, % of agonist value” (TRPA1V1; Table 1(i), 100 μM (*), relative to AITC 30 μM or capsaicin 350 nM depending on compound, […])?
A: 1.8%

Q: What about the activation at 100 µM (human TRPA1; Table 1(i), 100 μM (*), […]) of the same compound?
A: 1.2%

Q: How did the activation at 100 µM (human TRPV1; Table 1(a), 100 μM (*)) turn out when `Cc1nccnc1SCc1ccco1` [2-Furfurylthio-3-methylpyrazine] was run?
A: 31.3%

Q: What about the “A1V1 activation, % of agonist value” (TRPA1V1; [2]) of the same compound?
A: 80.9%

Q: What about the activation at 100 µM (human TRPA1; Table 1(a), 100 μM (*)) of the same compound?
A: 80.7%

Q: For `C=Cc1ccc(O)c(OC)c1` [2-Methoxy-4-vinylphenol], which activation at 1000 µM (human TRPV1; [3]) is on record?
A: 20.7%

Q: And the “A1V1 activation, % of agonist value” (TRPA1V1; [4])?
A: 81.90%

Q: What about the activation at 1000 µM (human TRPA1; [3]) of the same compound?
A: 74.8%

Q: For `CCC(C)COC(=O)CC(C)C` (stereo not drawn) [2-Methylbutyl isovalerate], which activation at 1000 µM (human TRPV1; Table 1(i), 1 mM, […]) is on record?
A: 75.3%

Q: And the “TRPV1 activation selectivity, in words” value (human TRPV1)?
A: TRPV1 activators which do not modulate TRPA1 or TRPA1V1

Q: What about the “A1V1 activation, % of agonist value” (TRPA1V1; Table 1(i), 1 mM, relative to AITC 30 μM or capsaicin 350 nM depending on compound, […]) of the same compound?
A: 2.1%

Q: And the activation at 1000 µM (human TRPA1; Table 1(i), 1 mM, […])?
A: 1.7%

Q: For `Sc1ccc2ccccc2c1` [2-Napthlaenthiol], which “V1 activation, % of agonist value” (human TRPV1; Table 1(a), 100 μM (*)) is on record?
A: 120.3%

Q: And the “A1V1 activation, % of agonist value” (TRPA1V1; [2])?
A: 85.2%

Q: What about the “A1 activation, % of agonist value” (human TRPA1; Table 1(a), 100 μM (*)) of the same compound?
A: 66.3%

Q: Which results are given for `CCCc1ccccc1O` [2-Propylphenol]?
A: activation at 1000 µM (human TRPV1; [3]): 96.9%; A1V1 activation, % of agonist value (TRPA1V1; [4]): 183.8%; activation at 1000 µM (human TRPA1; [3]): 126%

Q: Which activation at 1000 µM (human TRPV1; Table 1(b), 1 mM) does the source give for `CC(CC=O)CC(C)(C)C` (stereo not drawn) [3,5,5-Trimethylhexanal] here?
A: 217%

Q: What about the “A1V1 activation, % of agonist value” (TRPA1V1; [1]) of the same compound?
A: 114.7%

Q: And the activation at 1000 µM (human TRPA1; Table 1(b), 1 mM)?
A: 133%

Q: `CCC(S)C(C)=O` (stereo not drawn) [3-Mercapto-2-pentanone] was tested. Which activation at 1000 µM (human TRPV1; [3]) did it give?
A: 59.2%

Q: And the “A1V1 activation, % of agonist value” (TRPA1V1; [4])?
A: 72.6%

Q: And the “A1V1 activation, % of agonist value” (TRPA1V1; Table 1(c), 100 μM (*), relative to AITC 30 μM)?
A: 100%

Q: And the activation at 1000 µM (human TRPA1; [3])?
A: 92%

Q: And the activation at 100 µM (human TRPA1; Table 1(c), 100 μM (*))?
A: 103%

Q: What does the source list for `CC(=O)C(C)S` (stereo not drawn) [3-Mercaptobutanone, 3-Mercapto-2-butanone]?
A: activation at 1000 µM (human TRPV1; Table 1(b), 1 mM): 63.8%; A1V1 activation, % of agonist value (TRPA1V1; [1]): 80.9%; A1V1 activation, % of agonist value (TRPA1V1; [5]): 53.3%; activation at 1000 µM (human TRPA1; Table 1(b), 1 mM): 50.4%; activation at 100 µM (human TRPA1; Table 1(d), 100 μM (*)): 68.9%

Q: Which results are given for `CC(C)C(C=O)c1ccccc1` (stereo not drawn) [3-Methyl-2-Phenylbutyraldehyde]?
A: activation at 1000 µM (human TRPV1; [3]): 75.8%; A1V1 activation, % of agonist value (TRPA1V1; [4]): 93.08%; activation at 1000 µM (human TRPA1; [3]): 90.6%

Q: Which results are given for `CCCC1CC(=O)C=C(C)C1` (stereo not drawn) [3-Methyl-5-propyl-2-cyclohexen-1-one]?
A: activation at 1000 µM (human TRPV1; Table 1(b), 1 mM): 59.2%; A1V1 activation, % of agonist value (TRPA1V1; [1]): 101.0%; activation at 1000 µM (human TRPA1; Table 1(b), 1 mM): 69%

Q: Which results are given for `CCCCC=CC(C)=O` [3-Octen-2-one]?
A: activation at 1000 µM (human TRPV1; [3]): 30%; A1V1 activation, % of agonist value (TRPA1V1; [4]): 45.60%; activation at 1000 µM (human TRPA1; [3]): 52.7%

Q: Which activation at 1000 µM (human TRPV1; Table 1(b), 1 mM) does the source give for `OCCCc1ccccc1` [3-Phenylpropanol] here?
A: 32%

Q: What about the “A1V1 activation, % of agonist value” (TRPA1V1; [1]) of the same compound?
A: 64.94%

Q: And the activation at 1000 µM (human TRPA1; Table 1(b), 1 mM)?
A: 51.4%

Q: What does the source list for `CCCCC(=O)C(CCC)Sc1ccoc1C` (stereo not drawn) [4-(2-Methyl-3-furylthio)-5-nonanone]?
A: activation at 1000 µM (human TRPV1; Table 1(g), 1 mM): 40.6%; A1V1 activation, % of agonist value (TRPA1V1; [5]): 34.1%; A1V1 activation, % of agonist value (TRPA1V1; Table 1(g), 1 mM, relative to capsaicin 350 nM): 64%; activation at 100 µM (human TRPA1; Table 1(d), 100 μM (*)): 52.5%

Q: For `CC1=C(O)C(=O)CO1` [4-Hydroxy-5-methyl-3-furanone], which activation at 1000 µM (human TRPV1; [3]) is on record?
A: 40.5%

Q: And the “A1V1 activation, % of agonist value” (TRPA1V1; [4])?
A: 38%

Q: What about the activation at 1000 µM (human TRPA1; [3]) of the same compound?
A: 58%

Q: Which results are given for `O=Cc1ccc(O)cc1` [4-Hydroxybenzaldehyde]?
A: activation at 100 µM (human TRPV1; Table 1(a), 100 μM (*)): 123%; A1V1 activation, % of agonist value (TRPA1V1; [2]): 163.2%; A1V1 activation, % of agonist value (TRPA1V1; Table 1(c), 1 mM, relative to AITC 30 μM): 60.3%; activation at 100 µM (human TRPA1; Table 1(a), 100 μM (*)): 80.4%; activation at 1000 µM (human TRPA1; Table 1(c), 1 mM): 63%

Q: Which activation at 1000 µM (human TRPV1; Table 1(b), 1 mM) does the source give for `CC(O)CCc1ccccc1` (stereo not drawn) [4-Phenyl-2-butanol] here?
A: 37.9%

Q: And the “A1V1 activation, % of agonist value” (TRPA1V1; [1])?
A: 81.29%

Q: What about the activation at 1000 µM (human TRPA1; Table 1(b), 1 mM) of the same compound?
A: 58.8%

Q: `CC/C=C\CCCCO` [5-Octen-1-ol, (Z)] was tested. Which “V1 activation, % of agonist value” (human TRPV1; [3]) did it give?
A: 20.50%

Q: And the “A1V1 activation, % of agonist value” (TRPA1V1; [4])?
A: 69.24%

Q: And the “A1 activation, % of agonist value” (human TRPA1; [3])?
A: 62.30%

Q: For `CCCCCC(=O)CCCC(=O)O` [5-Oxodecanoic acid], which activation at 1000 µM (human TRPV1; Table 1(b), 1 mM) is on record?
A: 53.4%

Q: And the “A1V1 activation, % of agonist value” (TRPA1V1; [1])?
A: 39.34%

Q: And the activation at 1000 µM (human TRPA1; Table 1(b), 1 mM)?
A: 28.6%

Q: Which results are given for `OCCCCCc1ccccc1` [5-Phenyl-1-pentanol]?
A: activation at 1000 µM (human TRPV1; Table 1(b), 1 mM): 113%; A1V1 activation, % of agonist value (TRPA1V1; [1]): 52.1%; activation at 1000 µM (human TRPA1; Table 1(b), 1 mM): 119%
